Patent publication US12441693B2, “Targeting STAT sumoylation to enhance immune responses” (THE GEORGE WASHINGTON UNIVERSITY, priority 2018, dated 2025)

Legend:
[1] = tested on: STAT5 transcriptional activity; test: Primary cell screening assay (CD69 expression, STAT5 transcriptional activity); format: cell-based; conditions: primary human CD4 T cells
Procedure: It was observed that the ability of different benzotriazole and benzotriazin derivatives to increase STAT5 phosphorylation correlated with the ability of the compounds to induce the expression of CD69 (a STAT5 target gene) (FIG. 2A) but not CD25 (FIG. 2B) in the surface of human CD4 T cells. Based on these findings, a primary cell screening assay was set up according to FIG. 2C to identify derivatives with similar activity. As an example, flow cytometry was performed to isolated activated cells (FIG. 2D), which were expanded in the presence of DMSO or a compound of interest (FIG. 2E), and screened for changes in the expression of CD69 (FIG. 2F).

[2] = tested on: STAT1, STAT2, STAT3, STAT4, STAT5A, STAT5B, STAT6; test: Western blot of STAT phosphorylation in 293FT HEK cells transfected with V5-tagged STATs; format: cell-based; conditions: 24 hours, vs DMSO
Procedure: In general, samples are prepared and loaded on to a gel and during the electrophoresis the negatively charged proteins move toward the positively charged anode. In order to further analyze the proteins, they are transferred onto a membrane in a procedure called blotting. After the transfer, the membrane is blocked in order to prevent unwanted membrane-protein interaction in the following steps. To visualize the protein of interest the membrane is commonly first probed using a primary protein-specific antibody followed by a labeled secondary antibody used for detection. An image is taken of the membrane and the result is analyzed.

Granzyme B, TRAIL = test: Expression of cytotoxic molecules (Gzm B, TRAIL) in CD8 and CD4 T cells; format: cell-based, human

Compound: O=c1c2ccccc2nnn1O [HODHBt]
- STAT5 transcriptional activity relative to HODHBt [1]: the compound with the strongest activity
- EC50 ([1]; read-out: EC50 in the primary cell screening method): ~63 µM
- phosphorylation levels of STATs [2]: increased phosphorylation levels of all the other STATs
- levels of Gzm B in CD8 T cells (Granzyme B, TRAIL): increased the levels of Gzm B in CD8 T cells
- expression of Granzyme B in activated CD8 T cells (Granzyme B, TRAIL; cultured for three days): increased the levels of expression
- expression of TRAIL in activated CD8 T cells (Granzyme B, TRAIL; cultured for three days): increased the levels of expression
